The values that follow come from patent US4563470A, “N-Substituted α,ωamino and imino-sulfonic acid salts and their application as cationic vectors of high cellular penetration” (Les Laboratories Meram, priority 1982, dated 1986).

Read-outs that look alike come from different tables or passages of the source.

Series [1] in a line: Solubility. The series is classed as physicochemical. The note with it: for solubility in alcohol / ethanol: alcohol or ethanol.
Series [2] has as its system Sprague-Dawley I.O.P.S. rats. The experiment in a line: Oral magnesium recharge in magnesium-deficient rats. In kind it is in vivo, rat (Sprague-Dawley I.O.P.S.). The note with it: for onset of correction of erythrocyte magnesium: 40, 20 or 5 mg magnesium/kg/day; for aggression of deficient rats with respect to mice (muricide activity): magnesium-deficient rats (25 ppm Mg); for erythrocyte magnesium level (hypercorrection): third day, deficient animals 40 mg, controls 60 mg.

The nature of series [3]: Acute toxicity LD50 oral vs i.p. and B/P ratio, rat. The series is classed as in vivo. The note with it: in vivo, Sprague-Dawley I.O.P.S. rat. The text has this:
It has been determined that this discovery is not appropriate to a particular animal, by making the same observation for the Sprague-Dawley I.O.P.S. rat where the B/P ratio for magnesium chloride is greater than […]. For the respective compounds of Examples 13 and 14, the ratio is reduced in a most significant manner (p<0.001), to 3.3/2.2=1.5 and […].

Series [4] can be described thus: Therapeutic use in a patient with latent tetany by magnesium deficiency. In kind it is in vivo, human. The protocol:
was attacked by latent tetany by magnesium deficiency. They were treated for two years by various forms of magnesotherapy: 3 g magnesium lactate per day or three drinkable ampoules of magnesium pyroglutamate (standardised 127 mg Mg^2+ per ampoule) per day, without succeeding in correcting an erythrocyte magnesium level varying from 43 to 46 mg/l. A prescription of 3 gelatine-coated pills of the compound of Example 13 led to a regression of […] (headache, asthenia, cramp) and the increase, to 48 mg/l in the first month and to 53 mg/l in the second month, of the erythrocyte magnesium level. Ultimately, it was nevertheless observed that each interruption in administration of the product was followed, in the subsequent chemical and biological monthly control, by a relapse (comprising the symptomotology and reduction of the erythrocyte magnesium level to about 45 mg/l).

In series [5] the test system is Swiss I.O.P.S. mice. The series is described as follows: in vivo. The following applies: Swiss I.O.P.S. mouse; for LD50 by gastric tubage (B): oral. The protocol: (§1) The study is carried out with Swiss I.O.P.S. mice, in lots of 20 animals of both sexes.
A short description of series [6]: in vivo. The following applies: mouse, in vivo; for selectivity ratio: B/P ratio (oral LD50 / i.p. LD50). The procedure:
as §1

Series [7] deals with insulin. The experiment in a line: Potentiation of the hypoglycemic activity of insulin (test of Macallum et al.). In kind it is in vivo, rabbit. The note with it: oral; summary of insulin potentiation and kainic acid tests. The protocol:
By way of example, the compounds are tested, on one hand by the test of Macallum et al., Can.

A short description of series [8]: Acute toxicity LD50 oral vs i.p. and B/P ratio, sodium salts (species not restated). In kind it is in vivo. The note with it: for selectivity ratio / LD50: in vivo. The text has this:
While the ratio for the reference salt, sodium chloride, is greater than 205.4/61.2=3.36, it is, for the imino compounds of Examples 1 and 5 7.0/3.0=2.33 and 6.7/4.4=1.52, respectively, and, for the amino compounds of Examples 2 and 6 (while not strictly determined but without doubt greater than 1), respectively greater than 20.1/20.1=1 and greater than […].

Series [9] is described as follows: Test of Frances et al. (ED50 rolling, trembling).
The mark [10] stands for this setting: ip, i.p., read-out: LD50 i.p. (P).
Setting [11] is: oral, read-out: LD50 by gastric tubage (B).
Where [12] appears, read: one patient, 3 gelatine-coated pills (750 mg, 32 mg Mg ion daily).
Setting [13] is: ip, LD50 i.p. (P), Swiss I.O.P.S. mouse.
The mark [14] stands for this setting: po, LD50 by gastric tubage (B), Swiss I.O.P.S. mouse.

By LD50 is commonly meant the dose at which mortality reaches 50%. `Cc1ncc(CO)c(C=NCCS(=O)(=O)O)c1O` [Example 13, Magnesium β-(3-hydroxy-5-hydroxymethyl-2-methyl-4-pyridylmethyleneimino)ethanesulfonate]: the solubility in methanol entry in series [1] is “Insoluble”. Further, in series [2], the “onset of hypercorrection of erythrocyte magnesium” value was “third day”, the “onset of correction of erythrocyte magnesium” value is on record as “first day”, the “aggression of deficient rats with respect to mice (muricide activity)” value was “reduced aggression” and the “erythrocyte magnesium level (hypercorrection)” value is reported as 79.2 mg. Further, the LD50 in [3] (setting [10]) is 2200 µmol/kg. For the same compound, the selectivity ratio in series [3] came out at 1.5. Besides, the LD50 in series [3] (setting [11]) amounted to 3300 µmol/kg. Moreover, the “activity in controlling magnesium deficiency versus conventional magnesium salts” value in [4] (750 mg daily (32 mg Mg ion) vs conventional magnesium salts at doses 10 times larger) is “more active”. Also, in [4] (one patient, 3 gelatine-coated pills), the “symptoms (headache, asthenia, cramp)” value is on record as “regression”. In [4] (setting [12]), the “erythrocyte magnesium level, first month” value came out at 48 mg/L and the “erythrocyte magnesium level, second month” value was determined as 53 mg/L. Also, the “erythrocyte magnesium level after interruption of administration” value in series [4] (one patient, relapse at subsequent monthly control) was “about 45 mg/l”. Also, in series [5], the “B/P ratio (oral LD50 / i.p. LD50)” value was 1.17. This compound came in with an LD50 in series [6] (ip) of 2800 µmol/kg. In addition, the LD50 in series [6] (po) worked out at 3300 µmol/kg.
Regarding `Cc1ncc(CO)c(CNCCCS(=O)(=O)[O-])c1O.[Li+]`, in [1], the solubility in acetone result is on record as “insoluble” and the solubility in water result is listed as “soluble”.
With `Cc1ncc(CO)c(C=NCCS(=O)(=O)O)c1O` [Example 3, Potassium β-(3-hydroxy-5-hydroxymethyl-2-methyl-4-pyridylmethyleneimino)ethanesulfonate], in series [5], the “B/P ratio (oral LD50 / i.p. LD50)” value is on record as 1.79 and the “LD50 by gastric tubage (B)” value is recorded as 7.0 mmol/kg.
On to `Cc1ncc(CO)c(C=NCCCS(=O)(=O)O)c1O` [Example 12, Calcium γ-(3-hydroxy-5-hydroxymethyl-2-methyl-4-pyridylmethyleneimino)propanesulfonate], for which the solubility in acetone entry in series [1] (acetone) is listed as “Insoluble”. In addition, the solubility in methanol result in [1] was “Soluble”. The solubility in water entry in [1] (water) was “Soluble”. For the same compound, in series [5], the “B/P ratio (oral LD50 / i.p. LD50)” value is reported as 3.3. The LD50 in series [6] (setting [13]) stood at 2400 µmol/kg; in series [6] (setting [14]), 8100 µmol/kg.
Take vitamin B6: the “oral activity after the metabolic and neurologic tests” value in series [7] was “inactive”.
Turning to `Cc1ncc(CO)c(CNCCS(=O)(=O)[O-])c1O.[K+]`, in [1], the solubility in acetone entry is recorded as “Insoluble” and the solubility in water entry is on record as “Soluble”. Further, the selectivity ratio in series [6] (Swiss I.O.P.S. mouse) is 1.2. This compound registered an LD50 in series [6] (setting [13]) of 13000 µmol/kg. Also, in series [6] (setting [14]), the LD50 worked out at 15700 µmol/kg.
Take `Cc1ncc(CO)c(CNCCS(=O)(=O)[O-])c1O.[Na+]` [Example 2, Sodium β-(3-hydroxy-5-hydroxymethyl-2-methyl-4-pyridylmethylamino)ethanesulfonate]: the selectivity ratio in [8] was greater than 1. Besides, the LD50 is 20100 µmol/kg in [8] (ip, read-out: LD50 i.p. (P)) and greater than 20100 µmol/kg in series [8] (setting [11]). The solubility in acetone entry in series [1] (acetone) is “Insoluble”. Besides, the solubility in methanol result in series [1] was “Poorly soluble”. The solubility in water result in series [1] (water) is “Soluble”.
Turning to `Cc1ncc(CO)c(C=NCCCS(=O)(=O)O)c1O` [Example 7, Potassium γ-(3-hydroxy-5-hydroxymethyl-2-methyl-4-pyridylmethyleneimino)propanesulfonate], in series [1] (acetone), the solubility in acetone result is recorded as “Insoluble”. Further, in [1] (water), the solubility in water entry is given as “Soluble”. Besides, in series [5], the “B/P ratio (oral LD50 / i.p. LD50)” value was 1.75 and the “LD50 by gastric tubage (B)” value is given as 7.0 mmol/kg.
In the case of `[Cl-].[Na+]` [sodium chloride, reference compound], the “B/P ratio (oral LD50 / i.p. LD50)” value in series [8] was greater than 3.36. Besides, in series [8] (oral), the “LD50 by gastric tubage (B)” value is “greater than 205.4 mmol/kg”.
In the case of `Cc1ncc(CO)c(C=NCCCS(=O)(=O)O)c1O` [lithium γ-(3-hydroxy-5-hydroxymethyl-2-methyl-4-pyridylmethy] [lithium γ-(3-hydroxy-5-hydroxymethyl-2-methyl-4-pyridylmethyleneimino)propanesulfonate], the solubility in acetone result in [1] (acetone) was “insoluble”. Besides, the solubility in water entry in series [1] (water) is reported as “soluble”.
As for `[Cl-].[K+]` [potassium chloride, reference compound], in series [5], the “B/P ratio (oral LD50 / i.p. LD50)” value is reported as greater than 7.25 and the “LD50 by gastric tubage (B)” value is on record as “greater than 107.3 mmol/kg”.
Broadly, the ED50 is the midpoint of the dose-response relation. Take `Cc1ncc(CO)c(CNCCCS(=O)(=O)[O-])c1O.[K+]`: the solubility in acetone result in series [1] is “Insoluble”. Besides, the solubility in water entry in series [1] was “Soluble”. Moreover, the ED50 in series [9] (read-out: ED50 rolling) and in series [9] (read-out: ED50 trembling) was 270 µmol/kg in each case. In series [9] (test of Frances et al.), the “activity relative to taurine” value was 17 times. The selectivity ratio in series [6] (Swiss I.O.P.S. mouse) was 1.19. In addition, the LD50 in series [6] (setting [13]) was found to be 14200 µmol/kg; in [6] (setting [14]), 17000 µmol/kg.
Regarding `Cc1ncc(CO)c(CNCCCS(=O)(=O)[O-])c1O.[Na+]`, the selectivity ratio in series [8] was greater than 1.43. Besides, the LD50 in [8] (ip, read-out: LD50 i.p. (P)) was 13000 µmol/kg; in series [8] (setting [11]), greater than 19200 µmol/kg. Moreover, in series [1] (acetone), the solubility in acetone result was “Insoluble”. For the same compound, the solubility in water entry in [1] (water) is recorded as “Soluble”.
`Cc1ncc(CO)c(CNCCS(=O)(=O)[O-])c1O.[Li+]`: in [1], the solubility in acetone result is on record as “Insoluble” and the solubility in water result is reported as “Soluble”.
Turning to `Cc1ncc(CO)c(C=NCCS(=O)(=O)O)c1O` [Example 1, Sodium β-(3-hydroxy-5-hydroxymethyl-2-methyl-4-pyridylmethyleneimino)ethanesulfonate], in series [8], the selectivity ratio is 2.33. The LD50 in series [8] (ip, read-out: LD50 i.p. (P)) was 3000 µmol/kg; in series [8] (setting [11]), 7000 µmol/kg. The “solubility in alcohol / ethanol” value in [1] is reported as “Insoluble”.
For `Cc1ncc(CO)c(C=NCCS(=O)(=O)O)c1O` [Example 9, Lithium β-(3-hydroxy-5-hydroxymethyl-2-methyl-4-pyridylmethyleneimino)ethanesulfonate], the solubility in acetone result in series [1] (acetone) is “Insoluble”. Also, the solubility in water result in series [1] (water) is listed as “Soluble”.
Turning to `[Ca+2].[Cl-].[Cl-]` [CaCl2, reference compound], in [5], the “B/P ratio (oral LD50 / i.p. LD50)” value was greater than 9.2 and the “LD50 by gastric tubage (B)” value is reported as “greater than 36.5 mmol/kg”.
On to `Cc1ncc(CO)c(C=NCCCS(=O)(=O)O)c1O` [Example 14, Magnesium γ-(3-hydroxy-5-hydroxymethyl-2-methyl-4-pyridylmethyleneimino)propanesulfonate], for which the solubility in acetone entry in series [1] (acetone) is “Insoluble”. Further, the solubility in methanol result in series [1] is “Insoluble”. Also, the solubility in water result in [1] (water) is recorded as “Soluble”. Moreover, in series [2], the “onset of hypercorrection of erythrocyte magnesium” value is on record as “third day”, the “onset of correction of erythrocyte magnesium” value is given as “first day”, the “aggression of deficient rats with respect to mice (muricide activity)” value is listed as “reduced aggression” and the “erythrocyte magnesium level (hypercorrection)” value is reported as 75.8 mg. Besides, the 50% lethal dose (LD50) in series [3] (setting [10]) stood at 2400 µmol/kg. Further, the selectivity ratio in [3] is 1.66. For the same compound, in series [3] (setting [11]), the LD50 came out at 4200 µmol/kg. Besides, the “B/P ratio (oral LD50 / i.p. LD50)” value in series [5] was 1.24. Also, in series [6] (ip), the LD50 was 3300 µmol/kg. This compound returned an LD50 in [6] (po) of 4100 µmol/kg.
In the case of `Cc1ncc(CO)c(C=NCCCS(=O)(=O)O)c1O` [Example 5, Sodium γ-(3-hydroxy-5-hydroxymethyl-2-methyl-4-pyridylmethyleneimino)propanesulfonate], the selectivity ratio in series [8] was found to be 1.52. For the same compound, the LD50 was determined as 4400 µmol/kg in [8] (ip, read-out: LD50 i.p. (P)) and 6700 µmol/kg in [8] (setting [11]). For the same compound, the solubility in acetone entry in [1] (acetone) is “Insoluble”. Further, the “solubility in alcohol / ethanol” value in series [1] is recorded as “Insoluble”. For the same compound, the solubility in water entry in series [1] (water) was “Soluble”.
In the case of `Cc1ncc(CO)c(C=NCCS(=O)(=O)O)c1O` [Example 11, Calcium β-(3-hydroxy-5-hydroxymethyl-2-methyl-4-pyridylmethyleneimino)ethanesulfonate], the “B/P ratio (oral LD50 / i.p. LD50)” value in series [5] stood at 2.96. Further, the LD50 in series [6] (setting [13]) came out at 2600 µmol/kg; in [6] (setting [14]) it was 7700 µmol/kg.
